From patent US11214577B2, “Morphinans useful for treating medical disorders” (priority 2019, dated 2022) come the findings set out here.

Assay [1] has as its target T1, recombinant human kappa opioid receptor (Homo sapiens, UniProt P41145).
T1 construct: expressed in transfected cells; host or cells: HEK293 (membranes)
As to the kind of experiment: biochemical. Particulars: membranes of HEK293 cells; radioligand [3H]diprenorphine 0.5 nM; read-out: Binding Affinity Kappa IC50.

Assay [2] has as its target T2, recombinant human mu opioid receptor (Homo sapiens, UniProt P35372).
T2 construct: expressed in transfected cells; host or cells: HEK293 (membranes)
As to the kind of experiment: Opioid receptor radioligand binding assay, mu. The following applies: for IC50: radioligand [3H]DAMGO 0.5 nM; for Selectivity μ/k: ratio of Mu IC50 to Kappa IC50.

For assay [3], the target named is T3, recombinant human delta opioid receptor (Homo sapiens, UniProt P41143).
T3 construct: expressed in transfected cells; host or cells: HEK293 (membranes)
As to the kind of experiment: Opioid receptor radioligand binding assay, delta. Particulars: for IC50: radioligand [3H]DADLE 0.5 nM; for Selectivity δ/k: ratio of Delta IC50 to Kappa IC50.

Assay [4] addresses T1, recombinant human kappa opioid receptor. As to the kind of experiment: cell-based. The class given is cell-based. Particulars: for EC50: read-out: Cell Assay (FLIPR Calcium) Kappa EC50.
Where [5] appears, read: membranes of HEK293 cells, read-out: Binding Affinity Mu IC50.
Setting [6] is: membranes of HEK293 cells, read-out: Binding Affinity Delta IC50.
Where [7] appears, read: Binding Affinity Mu IC50, membranes of HEK293 cells.
The mark [8] stands for this setting: Binding Affinity Delta IC50, membranes of HEK293 cells.

Read-outs that look alike come from different tables or passages of the source. Some results are limits rather than exact numbers.

T2 sequence (P35372 whole entry): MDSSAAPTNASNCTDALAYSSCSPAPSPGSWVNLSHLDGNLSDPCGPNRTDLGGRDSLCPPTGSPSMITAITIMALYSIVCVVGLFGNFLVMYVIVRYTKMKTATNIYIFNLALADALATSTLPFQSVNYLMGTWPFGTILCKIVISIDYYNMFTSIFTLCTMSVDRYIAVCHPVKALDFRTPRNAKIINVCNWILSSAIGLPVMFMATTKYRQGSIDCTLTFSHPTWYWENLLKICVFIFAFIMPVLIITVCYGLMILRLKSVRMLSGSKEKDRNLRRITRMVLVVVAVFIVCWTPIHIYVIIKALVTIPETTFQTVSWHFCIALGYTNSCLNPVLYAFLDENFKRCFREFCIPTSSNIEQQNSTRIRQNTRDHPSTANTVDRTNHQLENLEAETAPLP
T1 sequence (P41145 whole entry): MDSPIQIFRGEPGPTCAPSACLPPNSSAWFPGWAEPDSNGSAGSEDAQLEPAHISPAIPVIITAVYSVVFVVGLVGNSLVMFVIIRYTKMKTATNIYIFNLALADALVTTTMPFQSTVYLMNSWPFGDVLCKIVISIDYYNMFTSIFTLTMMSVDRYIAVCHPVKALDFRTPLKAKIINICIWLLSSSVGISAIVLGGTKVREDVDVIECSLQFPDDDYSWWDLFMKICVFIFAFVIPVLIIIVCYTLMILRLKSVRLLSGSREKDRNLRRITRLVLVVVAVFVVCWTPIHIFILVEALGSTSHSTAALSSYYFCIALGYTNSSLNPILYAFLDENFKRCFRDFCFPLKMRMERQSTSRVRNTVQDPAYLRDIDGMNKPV
T3 sequence (P41143 whole entry): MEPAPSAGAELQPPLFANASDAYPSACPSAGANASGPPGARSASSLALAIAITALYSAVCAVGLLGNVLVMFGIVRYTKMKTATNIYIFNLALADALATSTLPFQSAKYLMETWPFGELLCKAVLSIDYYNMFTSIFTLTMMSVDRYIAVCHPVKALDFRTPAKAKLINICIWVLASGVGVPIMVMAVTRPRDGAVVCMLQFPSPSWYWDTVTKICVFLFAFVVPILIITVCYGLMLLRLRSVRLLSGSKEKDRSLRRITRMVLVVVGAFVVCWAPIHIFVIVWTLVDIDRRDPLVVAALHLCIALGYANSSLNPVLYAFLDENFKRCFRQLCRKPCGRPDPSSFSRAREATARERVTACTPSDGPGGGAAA

On to “17-cyclopropylmethyl-10-oxo-4,5α-epoxy-3,14β-dihydroxy-6β-((1R,2R)—N-methyl-2-(3-(4-hydroxylphenyl)-cyclopropanecarboxamido)morphinan [Compound 23b]”, for which the IC50 was found to be 0.62 nM in assay [1], 73.7 nM in assay [2] (setting [5]) and 528 nM in assay [3] (setting [6]). For the same molecule, in assay [2], the “Selectivity μ/k” value came to 118.9. For the same molecule, the “Selectivity δ/k” value in assay [3] was 1331.

For the molecule “17-cyclopropylmethyl-10-oxo-4,5α-epoxy-3,14β-dihydroxy-6β-((1S,2S)—N-methyl-2-(3-(4-hydroxylphenyl)-cyclopropanecarboxamido)morphinan [Compound 23a]”, the values for the IC50 in assay [1], in assay [2] (setting [5]) and in assay [3] (setting [6]) were 0.07 nM, 12.2 nM and 261 nM, respectively. Also, the “Selectivity μ/k” value in assay [2] was found to be 174.3. Besides, the “Selectivity δ/k” value in assay [3] is reported as 3731.

For the molecule `CN(C(=O)C1CC1c1ccoc1)C1CCC2(O)C3Cc4ccc(O)c5c4C2(CCN3CC2(O)CC2)C1O5` (single isomer, unassigned) [Compound 16a], the figures for the IC50 in assay [1], in assay [2] (setting [7]) and in assay [3] (setting [8]) were 0.94 nM, 1.55 nM and 5.46 nM, respectively. Also, the “Selectivity μ/k” value in assay [2] is 1.65. The “Selectivity δ/k” value in assay [3] was determined as 5.80.

For the molecule `CN(C(=O)C1CC1c1ccoc1)C1CCC2(O)C3Cc4ccc(O)c5c4C2(CCN3CC2(O)CC2)C1O5` (single isomer, unassigned) [Compound 16b], the IC50 is 6.74 nM in assay [1], 7.18 nM in assay [2] (setting [7]) and 34 nM in assay [3] (setting [8]). Moreover, in assay [2], the “Selectivity μ/k” value came out at 1.07. In addition, the “Selectivity δ/k” value in assay [3] came out at 5.05.

In the case of `CN(C(=O)C1CC1c1ccsc1)C1CCC2(O)C3Cc4ccc(O)c5c4C2(CCN3CC2(O)CC2)C1O5` (single isomer, unassigned) [Compound 18a], the IC50 is 0.97 nM in assay [1], 1.58 nM in assay [2] (setting [7]) and 10.9 nM in assay [3] (setting [8]). Moreover, in assay [2], the “Selectivity μ/k” value turned out to be 1.63. Besides, in assay [3], the “Selectivity δ/k” value is given as 11.3.

With `CN(C(=O)C1CC1c1ccsc1)C1CCC2(O)C3Cc4ccc(O)c5c4C2(CCN3CC2(O)CC2)C1O5` (single isomer, unassigned) [Compound 18b], the IC50 amounted to 6.15 nM in assay [1], 76.8 nM in assay [2] (setting [7]) and 118 nM in assay [3] (setting [8]). Besides, in assay [2], the “Selectivity μ/k” value was found to be 12.5. Besides, the “Selectivity δ/k” value in assay [3] came out at 19.2.

With `CN(C(=O)C1CC1c1ccsc1)C1CCC2(O)C3Cc4ccc(O)c5c4C2(CCN3CC2(O)CC2)C1O5` (single isomer, unassigned) [Compound 19a], the IC50 amounted to 0.17 nM in assay [1], 1.37 nM in assay [2] (setting [7]) and 16.3 nM in assay [3] (setting [8]). Moreover, the “Selectivity μ/k” value in assay [2] worked out at 8.05. For the same molecule, the “Selectivity δ/k” value in assay [3] turned out to be 96.1.

For `CN(C(=O)C1CC1c1ccc(O)cc1)C1CCC2(O)C3Cc4ccc(O)c5c4C2(CCN3CC2(O)CC2)C1O5` (single isomer, unassigned) [Compound 20a], the IC50 in assay [1] is 102 nM; in assay [2] (setting [7]), 119 nM; in assay [3] (setting [8]) it was 161 nM. Also, the “Selectivity μ/k” value in assay [2] came out at 1.12. Further, the “Selectivity δ/k” value in assay [3] amounted to 1.57.

For the molecule `CN(C(=O)C1CC1c1ccc(O)cc1)C1CCC2(O)C3Cc4ccc(O)c5c4C2(CCN3CC2(O)CC2)C1O5` (single isomer, unassigned) [Compound 21a], the IC50 in assay [1] is 0.85 nM; in assay [2] (setting [7]), 1.25 nM; in assay [3] (setting [8]) it was 30.2 nM. The “Selectivity μ/k” value in assay [2] turned out to be 1.47. Further, the “Selectivity δ/k” value in assay [3] is 35.6.

`CN(C(=O)[C@H]1C[C@@H]1c1ccoc1)[C@@H]1CC[C@@]2(O)[C@H]3Cc4ccc(O)c5c4[C@@]2(CCN3CC2CC2)[C@H]1O5` [Compound 5a, 17-Cyclopropylmethyl-4,5α-epoxy-3,14β-dihydroxy-6β-((1S,2S)—N-methyl-2-(3-furyl)-cyclopropanecarboxamido)morphinan]: the IC50 in assay [1] came to 0.42 nM; in assay [2] (setting [7]), 10.7 nM; in assay [3] (setting [8]), 86.5 nM. For the same molecule, the “Selectivity δ/k” value in assay [3] was found to be 207.59. Also, the “FLIPR calcium cell assay compared with reference” value in assay [4] (comparison in words on Table 2) is given as “improved cell assays over U-69596”. Further, the EC50 in assay [4] is 2.64 nM.

For `CN(C(=O)[C@@H]1C[C@H]1c1ccoc1)[C@@H]1CC[C@@]2(O)[C@H]3Cc4ccc(O)c5c4[C@@]2(CCN3CC2CC2)[C@H]1O5` [Compound 5b, 17-Cyclopropylmethyl-4,5α-epoxy-3,14β-dihydroxy-6β-((1R,2R)—N-methyl-2-(3-furyl)-cyclopropanecarboxamido)morphinan], the IC50 in assay [1] worked out at 7.76 nM; in assay [2] (setting [7]), 3.47 nM; in assay [3] (setting [8]), 69 nM. Further, the “Selectivity μ/k” value in assay [2] is 0.45. Besides, the “Selectivity δ/k” value in assay [3] turned out to be 8.90. In assay [4], the EC50 amounted to 9.7 nM.

`CN(C(=O)[C@H]1C[C@@H]1c1ccoc1)[C@H]1CC[C@@]2(O)[C@H]3Cc4ccc(O)c5c4[C@@]2(CCN3CC2CC2)[C@H]1O5` [Compound 7a, 17-Cyclopropylmethyl-4,5α-epoxy-3,14β-dihydroxy-6α-((1S,2S)—N-methyl-2-(3-furyl)-cyclopropanecarboxamido)morphinan]: the IC50 is 0.05 nM in assay [1], 0.3 nM in assay [2] (setting [7]) and 0.66 nM in assay [3] (setting [8]). Also, the “Selectivity μ/k” value in assay [2] is on record as 5.85. Moreover, the “Selectivity δ/k” value in assay [3] stood at 12.6. In addition, the 50% effective concentration (EC50) in assay [4] came out at 6.86 nM.

Consider `CN(C(=O)[C@@H]1C[C@H]1c1ccoc1)[C@H]1CC[C@@]2(O)[C@H]3Cc4ccc(O)c5c4[C@@]2(CCN3CC2CC2)[C@H]1O5` [Compound 7b, 17-Cyclopropylmethyl-4,5α-epoxy-3,14β-dihydroxy-6α-((1R,2R)—N-methyl-2-(3-furyl)-cyclopropanecarboxamido)morphinan], for which the IC50 in assay [1] stood at 0.24 nM; in assay [2] (setting [7]) it was 0.52 nM; in assay [3] (setting [8]), 0.68 nM. Besides, the “Selectivity μ/k” value in assay [2] was found to be 2.16. Also, the “Selectivity δ/k” value in assay [3] is reported as 2.82. Besides, in assay [4], the EC50 worked out at 3.76 nM.

Turning to `CN(C(=O)[C@H]1C[C@@H]1c1ccoc1)[C@@H]1CC[C@@]2(O)[C@H]3Cc4ccc(O)c5c4[C@@]2(CCN3CC2(O)CC2)[C@H]1O5` [Compound 17a, 17-(1-hydroxylcyclopropylmethyl)-4,5α-epoxy-3,14β-dihydroxy-6β-((1S,2S)—N-methyl-2-(3-furyl)-cyclopropanecarboxamido)morphinan], the values for the IC50 in assay [1], in assay [2] (setting [7]) and in assay [3] (setting [8]) were 1.22 nM, 4.96 nM and 43.1 nM, respectively. For the same molecule, in assay [2], the “Selectivity μ/k” value turned out to be 4.07. Moreover, the “Selectivity δ/k” value in assay [3] came out at 35.3.

On to `CN(C(=O)[C@@H]1C[C@H]1c1ccoc1)[C@@H]1CC[C@@]2(O)[C@H]3Cc4ccc(O)c5c4[C@@]2(CCN3CC2(O)CC2)[C@H]1O5` [Compound 17b], for which the IC50 in assay [1] is 6.49 nM; in assay [2] (setting [7]) it was 45.4 nM; in assay [3] (setting [8]), 71.6 nM. Besides, the “Selectivity μ/k” value in assay [2] came to 6.99. For the same molecule, the “Selectivity δ/k” value in assay [3] turned out to be 11.0.

With `CN(C(=O)[C@@H]1C[C@H]1c1ccsc1)[C@@H]1CC[C@@]2(O)[C@H]3Cc4ccc(O)c5c4[C@@]2(CCN3CC2(O)CC2)[C@H]1O5` [Compound 19b], the IC50 amounted to 0.46 nM in assay [1], 5.98 nM in assay [2] (setting [7]) and 147 nM in assay [3] (setting [8]). In assay [2], the “Selectivity μ/k” value is listed as 13.0. Moreover, the “Selectivity δ/k” value in assay [3] came to 319.

Take `CN(C(=O)[C@@H]1C[C@H]1c1ccc(O)cc1)[C@H]1CC[C@@]2(O)[C@H]3Cc4ccc(O)c5c4[C@@]2(CCN3CC2(O)CC2)[C@H]1O5` [Compound 20b]: the IC50 came out at 16 nM in assay [1], 8.08 nM in assay [2] (setting [7]) and 11.8 nM in assay [3] (setting [8]). Further, the “Selectivity μ/k” value in assay [2] is reported as 0.50. Further, in assay [3], the “Selectivity δ/k” value was 0.73.

On to `CN(C(=O)[C@@H]1C[C@H]1c1ccc(O)cc1)[C@@H]1CC[C@@]2(O)[C@H]3Cc4ccc(O)c5c4[C@@]2(CCN3CC2(O)CC2)[C@H]1O5` [Compound 21b], for which the IC50 was more than 200 nM in assay [1], 114 nM in assay [2] (setting [7]) and 385 nM in assay [3] (setting [8]). Besides, in assay [2], the “Selectivity μ/k” value is less than 0.57. Further, the “Selectivity δ/k” value in assay [3] is less than 1.93.
